Reference: publication PMC9454848, “BMS-986158, a Small Molecule Inhibitor of the Bromodomain and Extraterminal Domain Proteins, in Patients with Selected Advanced Solid Tumors: Results from a Phase 1/2a Trial” (Cancers, 2022)
Entries after “also recorded” stand apart in the source; their conditions may differ. Like-named read-outs stand apart in the source and are kept apart here.

Columns and labels:
[1] = system: patients with advanced solid tumors; assay: ECG ΔQTcF exposure-response at single dose; assay type: in vivo
Description: Triplicate ECG measures were used to assess changes from baseline in the QT interval adjusted for heart rate using Fridericia’s formula (ΔQTcF) following a single dose of BMS-986158 at C1D1. ΔQTcF was evaluated in the context of exposure response for BMS-986158 and its metabolite of interest.
(§1) All treated patients who received ≥1 dose of BMS-986158 were evaluated in the safety population. […] All treated patients with available and sufficient serum or plasma samples for the corresponding analytes were included in the PK analyses. […] ECG parameters were evaluated in a categorical analysis, and linear mixed-effects regression modeling was used to describe the quantitative relationship between ΔQTcF and time-matched serum concentrations of BMS-986158 or its metabolite at a single dose.

[2] = Plasma pharmacokinetics after multiple doses (cycle 2, steady state), LC-MS/MS; assay type: in vivo, human; conditions: for AUC(0-t) / half-life / Tmax / Cmax: human, plasma, oral
Description: At C1D1 in every dosing schedule cohort, a single dose was administered followed by 168 h (i.e., 7 days) of intensive PK sampling. Following cycle 1, the multiple-dose treatment schedules (described above) began in cycle 2. PK parameters were derived following single dose combined across all schedules and multiple doses at cycle 2 for each schedule. […] PK assessments were evaluated for BMS-986158 and its metabolite using plasma samples at regular intervals. Both the parent and metabolite samples were simultaneously analyzed using a validated liquid chromatography and tandem mass spectrometry assay.
as §1

HEXIM1 mRNA = assay: Change from baseline in gene expression, HEXIM1; assay type: in vivo, human; conditions: patients; by dose
Description: (§2) Summary changes from baseline in the expression of BET-regulated genes were assessed in tumor tissues and blood collected at baseline and multiple on-treatment time points after BMS-986158 administration following the 3 dosing schedules. The study also assessed summary percent changes from baseline in expression of BET-regulated genes in peripheral blood and tumors (such as HEXIM1 and C-MYC). Tissue and peripheral blood samples (at baseline and on treatment) were collected for genomic, transcriptomic, and epigenetic analyses (by DNA or mRNA) to assess pharmacodynamic changes in BET-regulated genes. These samples were analyzed using whole-exome sequencing, real-time quantitative polymerase chain reaction, and RNA-sequencing methods.
(§3) All treated patients with available biomarker measurements at baseline and ≥1 time point were included in the biomarker analyses. Blood and tumor tissue samples were collected at baseline, during treatment, and at end of treatment for biomarker analysis. Markers of selected BET-regulated genes (e.g., HEXIM1) were analyzed with summary statistics for percent changes in expression from available matched pre- and on-treatment samples over time relative to baseline. Statistically significant changes in gene expression were determined using the Benjamini–Hochberg procedure to calculate an adjusted p value with an α level of 0.05.

CCR2 mRNA = assay: Change from baseline in gene expression, CCR2; assay type: in vivo, human; conditions: patients; single dose up to 4.5 mg and schedule A
Description: as §2, §3

- CL/F at steady state, geometric mean, range across doses ([2]; Schedule A): 4.60 to 5.41 mL/min
- CL/F at steady state, geometric mean, range across doses ([2]; Schedule B): 3.76 to 9.72 mL/min
- CL/F at steady state, geometric mean, range across doses ([2]; Schedule C): 3.89 to 6.65 mL/min
- AUC(0-t) ([2]; 0.75 mg, multiple dose, steady state, Schedule A (5 days on, 2 days off), 0.75 mg, n = 3, read-out: AUC(0–24), GM (%CV)): 2720 ng·h/mL
- half-life ([2]; 0.75 mg, multiple dose, steady state, Schedule A (5 days on, 2 days off), 0.75 mg, n = 3, read-out: Effective T1/2, mean (SD) (converted)): 2160 min
- AUC(0-t) ([2]; 0.75 mg, multiple dose, steady state, Schedule A (5 days on, 2 days off), 0.75 mg, n = 4, read-out: AUC(0–T), GM (%CV)): 3450 ng·h/mL
- Tmax ([2]; 0.75 mg, multiple dose, steady state, Schedule A (5 days on, 2 days off), 0.75 mg, n = 4, read-out: Tmax, median (range)): 3.14 h
- Cmax ([2]; 0.75 mg, multiple dose, steady state, Schedule A (5 days on, 2 days off), n = 4): 136 ng/mL
- AUC(0-t) ([2]; 1.25 mg, multiple dose, steady state, Schedule A (5 days on, 2 days off), 1.25 mg, n = 1, read-out: AUC(0–24), GM (%CV)): 3850 ng·h/mL
- AUC(0-t) ([2]; 1.25 mg, multiple dose, steady state, Schedule A (5 days on, 2 days off), 1.25 mg, n = 4, read-out: AUC(0–T), GM (%CV)): 4960 ng·h/mL
- Tmax ([2]; 1.25 mg, multiple dose, steady state, Schedule A (5 days on, 2 days off), 1.25 mg, n = 4, read-out: Tmax, median (range)): 1.5 h
- Cmax ([2]; 1.25 mg, multiple dose, steady state, Schedule A (5 days on, 2 days off), n = 4): 284 ng/mL
- AUC(0-t) ([2]; 2 mg, multiple dose, steady state, Schedule A (5 days on, 2 days off), 2.0 mg, n = 7, read-out: AUC(0–T), GM (%CV)): 7610 ng·h/mL
- Tmax ([2]; 2 mg, multiple dose, steady state, Schedule A (5 days on, 2 days off), 2.0 mg, n = 7, read-out: Tmax, median (range)): 2 h
- Cmax ([2]; 2 mg, multiple dose, steady state, Schedule A (5 days on, 2 days off), n = 7): 442 ng/mL
- AUC(0-t) ([2]; 2 mg, multiple dose, steady state, Schedule B (14 days on, 7 days off), 2.0 mg, n = 1, read-out: AUC(0–24), GM (%CV)): 3430 ng·h/mL
- AUC(0-t) ([2]; 2 mg, multiple dose, steady state, Schedule B (14 days on, 7 days off), 2.0 mg, n = 1, read-out: AUC(0–T), GM (%CV)): 6320 ng·h/mL
- half-life ([2]; 2 mg, multiple dose, steady state, Schedule B (14 days on, 7 days off), 2.0 mg, n = 1, read-out: Effective T1/2, mean (SD) (converted)): 864 min
- Tmax ([2]; 2 mg, multiple dose, steady state, Schedule B (14 days on, 7 days off), 2.0 mg, n = 1, read-out: Tmax, median (range)): 1 h
- Cmax ([2]; 2 mg, multiple dose, steady state, Schedule B (14 days on, 7 days off), n = 1): 279 ng/mL
- AUC(0-t) ([2]; 2 mg, multiple dose, steady state, Schedule C (7 days on, 14 days off), 2.0 mg, n = 5, read-out: AUC(0–24), GM (%CV)): 8560 ng·h/mL
- AUC(0-t) ([2]; 2 mg, multiple dose, steady state, Schedule C (7 days on, 14 days off), 2.0 mg, n = 5, read-out: AUC(0–T), GM (%CV)): 19900 ng·h/mL
- half-life ([2]; 2 mg, multiple dose, steady state, Schedule C (7 days on, 14 days off), 2.0 mg, n = 5, read-out: Effective T1/2, mean (SD) (converted)): 1900 min
- Tmax ([2]; 2 mg, multiple dose, steady state, Schedule C (7 days on, 14 days off), 2.0 mg, n = 5, read-out: Tmax, median (range)): 1 h
- Cmax ([2]; 2 mg, multiple dose, steady state, Schedule C (7 days on, 14 days off), n = 5): 520 ng/mL
- AUC(0-t) ([2]; 3 mg, multiple dose, steady state, Schedule A (5 days on, 2 days off), 3.0 mg, n = 7, read-out: AUC(0–24), GM (%CV)): 9820 ng·h/mL
- half-life ([2]; 3 mg, multiple dose, steady state, Schedule A (5 days on, 2 days off), 3.0 mg, n = 7, read-out: Effective T1/2, mean (SD) (converted)): 1540 min
- AUC(0-t) ([2]; 3 mg, multiple dose, steady state, Schedule A (5 days on, 2 days off), 3.0 mg, n = 8, read-out: AUC(0–T), GM (%CV)): 13400 ng·h/mL
- Tmax ([2]; 3 mg, multiple dose, steady state, Schedule A (5 days on, 2 days off), 3.0 mg, n = 8, read-out: Tmax, median (range)): 2.01 h
- Cmax ([2]; 3 mg, multiple dose, steady state, Schedule A (5 days on, 2 days off), n = 8): 624 ng/mL
- AUC(0-t) ([2]; 3 mg, multiple dose, steady state, Schedule B (14 days on, 7 days off), 3.0 mg, n = 1, read-out: AUC(0–24), GM (%CV)): 13300 ng·h/mL
- AUC(0-t) ([2]; 3 mg, multiple dose, steady state, Schedule B (14 days on, 7 days off), 3.0 mg, n = 1, read-out: AUC(0–T), GM (%CV)): 34000 ng·h/mL
- half-life ([2]; 3 mg, multiple dose, steady state, Schedule B (14 days on, 7 days off), 3.0 mg, n = 1, read-out: Effective T1/2, mean (SD) (converted)): 2240 min
- Tmax ([2]; 3 mg, multiple dose, steady state, Schedule B (14 days on, 7 days off), 3.0 mg, n = 1, read-out: Tmax, median (range)): 1 h
- Cmax ([2]; 3 mg, multiple dose, steady state, Schedule B (14 days on, 7 days off), n = 1): 855 ng/mL
- half-life ([2]; 3 mg, multiple dose, steady state, Schedule C (7 days on, 14 days off), 3.0 mg, n = 7, read-out: Effective T1/2, mean (SD) (converted)): 1640 min
- AUC(0-t) ([2]; 3 mg, multiple dose, steady state, Schedule C (7 days on, 14 days off), 3.0 mg, n = 8, read-out: AUC(0–24), GM (%CV)): 8640 ng·h/mL
- AUC(0-t) ([2]; 3 mg, multiple dose, steady state, Schedule C (7 days on, 14 days off), 3.0 mg, n = 8, read-out: AUC(0–T), GM (%CV)): 18300 ng·h/mL
- Tmax ([2]; 3 mg, multiple dose, steady state, Schedule C (7 days on, 14 days off), 3.0 mg, n = 8, read-out: Tmax, median (range)): 1.66 h
- Cmax ([2]; 3 mg, multiple dose, steady state, Schedule C (7 days on, 14 days off), n = 8): 588 ng/mL
- AUC(0-t) ([2]; 4.5 mg, multiple dose, steady state, Schedule A (5 days on, 2 days off), 4.5 mg, n = 8, read-out: AUC(0–24), GM (%CV)): 14600 ng·h/mL
- AUC(0-t) ([2]; 4.5 mg, multiple dose, steady state, Schedule A (5 days on, 2 days off), 4.5 mg, n = 8, read-out: AUC(0–T), GM (%CV)): 29500 ng·h/mL
- half-life ([2]; 4.5 mg, multiple dose, steady state, Schedule A (5 days on, 2 days off), 4.5 mg, n = 8, read-out: Effective T1/2, mean (SD) (converted)): 1640 min
- Tmax ([2]; 4.5 mg, multiple dose, steady state, Schedule A (5 days on, 2 days off), 4.5 mg, n = 8, read-out: Tmax, median (range)): 2 h
- Cmax ([2]; 4.5 mg, multiple dose, steady state, Schedule A (5 days on, 2 days off), n = 8): 898 ng/mL
- half-life ([2]; 4.5 mg, multiple dose, steady state, Schedule C (7 days on, 14 days off), 4.5 mg, n = 5, read-out: Effective T1/2, mean (SD) (converted)): 1660 min
- AUC(0-t) ([2]; 4.5 mg, multiple dose, steady state, Schedule C (7 days on, 14 days off), 4.5 mg, n = 7, read-out: AUC(0–24), GM (%CV)): 11300 ng·h/mL
- AUC(0-t) ([2]; 4.5 mg, multiple dose, steady state, Schedule C (7 days on, 14 days off), 4.5 mg, n = 7, read-out: AUC(0–T), GM (%CV)): 20000 ng·h/mL
- Tmax ([2]; 4.5 mg, multiple dose, steady state, Schedule C (7 days on, 14 days off), 4.5 mg, n = 7, read-out: Tmax, median (range)): 2 h
- Cmax ([2]; 4.5 mg, multiple dose, steady state, Schedule C (7 days on, 14 days off), n = 7): 901 ng/mL
- half-life ([2]; multiple dose, Schedule A, read-out: Mean effective T1/2, range): 1540 to 2160 min
- half-life ([2]; multiple dose, Schedule B, read-out: Mean effective T1/2, range): 864 to 2240 min
- half-life ([2]; multiple dose, Schedule C, read-out: Mean effective T1/2, range): 1640 to 1900 min
- AUC(0-t) ([2]; multiple doses, Schedule A, 0.75–4.5-mg doses, read-out: Geometric mean AUC(0–T), range): 3450 to 29500 ng·h/mL
- AUC(0-t) ([2]; multiple doses, Schedule A, read-out: AUC(0–24), range): 2720 to 14600 ng·h/mL
- AUC(0-t) ([2]; multiple doses, Schedule B, 2.0–3.0-mg dose groups, read-out: Geometric mean AUC(0–T), range): 6320 to 34000 ng·h/mL
- AUC(0-t) ([2]; multiple doses, Schedule B, read-out: AUC(0–24), range): 3430 to 13300 ng·h/mL
- AUC(0-t) ([2]; multiple doses, Schedule C, 2.0–4.5 mg, read-out: Geometric mean AUC(0–T), range): 18300 to 20000 ng·h/mL
- AUC(0-t) ([2]; multiple doses, Schedule C, read-out: AUC(0–24), range): 8560 to 11300 ng·h/mL
- Tmax ([2]; multiple-dose administration, read-out: Tmax, range across all doses and schedules): 1 to 3.14 h
- Dose proportionality of PK profile ([2]; multiple-dose administration, Schedule C): less than dose proportional
SMILES: Cc1nnn(C)c1-c1cnc2c3ccc(C(C)(C)O)cc3n([C@H](c3ccccc3)C3CCOCC3)c2c1 [BMS-986158]
- Effect on ΔQTcF ([1]; single dose of BMS-986158): neither BMS-986158 nor its metabolite had a statistically significant effect; also recorded: not found to cause significant QTc prolongation
- Predicted increase in ΔQTcF at highest observed Cmax ([1]; single dose, linear mixed-effects model): < 5 ms
- Dose proportionality of PK profile ([2]; multiple-dose administration, Schedule A): approximately dose proportional; also recorded: dose-proportional PK profile
- HEXIM1 mRNA expression change from baseline (HEXIM1 mRNA): dose dependently upregulated; also recorded: transcriptional activation
- CCR2 mRNA expression change from baseline (CCR2 mRNA): transcriptional suppression; also recorded: dose-dependent expression changes
